Data published in ChEMBL document CHEMBL2434845, “Design, synthesis and efficacy of novel G protein-coupled receptor kinase 2 inhibitors” (Eur J Med Chem, 2013).
Activity calls are given as the source filed them. The calls are words filed in the database; no cut-off is given here. Peptide text beside a SMILES is read from it.

Experiments:
[1] = biological target: T1, Beta-adrenergic receptor kinase 1 (Homo sapiens) (UniProt P25098); assay: Inhibition of GRK-2 (unknown origin)-mediated phosphorylation of rhodopsin in bovine-rod outer segment membranes at 1 uM incubated under white light condition for 15 mins measured after 30 mins by autoradiography in presence of [gamma32P]-ATP; type: cell membranes
T1 sequence (whole entry): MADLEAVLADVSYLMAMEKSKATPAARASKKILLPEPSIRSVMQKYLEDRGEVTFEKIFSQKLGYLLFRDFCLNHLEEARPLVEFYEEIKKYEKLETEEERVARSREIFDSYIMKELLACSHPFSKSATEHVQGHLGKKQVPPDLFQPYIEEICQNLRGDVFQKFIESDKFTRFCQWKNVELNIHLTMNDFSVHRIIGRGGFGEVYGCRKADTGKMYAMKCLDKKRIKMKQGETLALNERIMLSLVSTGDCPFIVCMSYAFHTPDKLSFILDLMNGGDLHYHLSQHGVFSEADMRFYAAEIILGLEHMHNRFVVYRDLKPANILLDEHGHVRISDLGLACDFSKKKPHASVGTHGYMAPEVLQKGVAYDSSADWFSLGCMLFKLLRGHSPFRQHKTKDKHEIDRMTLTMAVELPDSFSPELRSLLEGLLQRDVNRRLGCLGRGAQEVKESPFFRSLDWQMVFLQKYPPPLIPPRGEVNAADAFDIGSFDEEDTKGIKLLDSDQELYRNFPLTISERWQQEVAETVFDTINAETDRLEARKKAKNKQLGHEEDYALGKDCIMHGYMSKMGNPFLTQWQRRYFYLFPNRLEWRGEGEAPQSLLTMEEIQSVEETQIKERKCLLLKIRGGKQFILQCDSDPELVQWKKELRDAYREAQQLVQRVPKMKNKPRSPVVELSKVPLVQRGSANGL

[2] = biological target: G protein-coupled receptor kinase 5 (Homo sapiens) (UniProt P34947); assay: Inhibition of GRK-5 (unknown origin)-mediated phosphorylation of rhodopsin in bovine-rod outer segment membranes incubated under white light condition for 15 mins measured after 30 mins by autoradiography in presence of [gamma32P]-ATP; type: cell membranes; parameters: concentration or dose not given beside the values
[3] = biological target: T1, Beta-adrenergic receptor kinase 1 (Homo sapiens); assay: Inhibition of GRK2 in HEK293 cells overexpressing human beta2 adrenergic receptor assessed as increase in beta2 adrenergic receptor density at 1 uM after 1 hr by gamma counting analysis in presence of [125I]cyanopindolol; type: cell-based
[4] = biological target: T1, Beta-adrenergic receptor kinase 1 (Homo sapiens); assay: Inhibition of GRK2 in HEK293 cells overexpressing human beta2 adrenergic receptor assessed as effect on cAMP production at 1 uM after 1 hr by enzyme immunoassay; type: cell-based
[5] = biological target: T1, Beta-adrenergic receptor kinase 1 (Homo sapiens); assay: (§1) Inhibition of GRK-2 (unknown origin)-mediated phosphorylation of rhodopsin in bovine-rod outer segment membranes incubated under white light condition for 15 mins measured after 30 mins by autoradiography in presence of [gamma32P]-ATP; type: cell membranes
[6] = biological target: T1, Beta-adrenergic receptor kinase 1 (Homo sapiens); assay: Inhibition of GRK2 in HEK293 cells overexpressing human beta2 adrenergic receptor assessed as effect on isoproterenol-induced cAMP production at 1 uM preincubated for 1 hr prior to isoproterenol-stimulation measured after 15 mins by enzyme immunoassay; type: cell-based
HEK293 [7] = assay: Cellular uptake in HEK293 cells overexpressing human beta2 adrenergic receptor at 1 uM after 1 hr by confocal microscopic analysis; type: ADME, cell-based; details: hek293, 1 h
HEK293 [8] = assay: Cellular uptake in HEK293 cells overexpressing human beta2 adrenergic receptor at 1 to 10 uM after 1 hr by fluorescence assay; type: ADME, cell-based; details: hek293, 1 h
[9] = biological target: T2, Beta-adrenergic receptor kinase 1 (Homo sapiens, UniProt P25098); assay: as §1; type: cell membranes
T2 sequence (P25098 whole entry): T1 sequence (whole entry)

G protein-coupled receptor kinase 5 (Homo sapiens), sequence (P34947 whole entry, looked up): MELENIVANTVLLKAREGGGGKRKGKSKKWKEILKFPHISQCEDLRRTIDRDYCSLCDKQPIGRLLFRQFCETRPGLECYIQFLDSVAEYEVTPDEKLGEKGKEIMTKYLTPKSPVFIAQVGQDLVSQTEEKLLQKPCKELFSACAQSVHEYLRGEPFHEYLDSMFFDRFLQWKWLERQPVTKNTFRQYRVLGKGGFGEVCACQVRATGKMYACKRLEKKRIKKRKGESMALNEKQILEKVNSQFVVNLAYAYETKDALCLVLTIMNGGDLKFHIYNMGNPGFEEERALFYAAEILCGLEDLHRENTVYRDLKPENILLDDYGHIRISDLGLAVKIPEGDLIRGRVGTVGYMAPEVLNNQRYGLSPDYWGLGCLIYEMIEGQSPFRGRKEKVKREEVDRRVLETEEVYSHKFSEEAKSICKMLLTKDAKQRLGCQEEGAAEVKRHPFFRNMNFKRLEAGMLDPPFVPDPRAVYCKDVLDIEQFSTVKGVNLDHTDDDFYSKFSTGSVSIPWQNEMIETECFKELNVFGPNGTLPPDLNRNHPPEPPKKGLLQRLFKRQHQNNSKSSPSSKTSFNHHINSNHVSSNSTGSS

SMILES | inhibition [1] | inhibition [2] | further results
CC(C)C[C@@H]1NC(=O)[C@H](CC(C)C)NC(=O)[C@H](CCCCN)NC(=O)[C@H](CC(=O)O)NC(=O)[C@H](Cc2cnc[nH]2)NC(=O)CNC(=O)[C@H](CCCNC(=N)N)NC1=O (cyclo(DKLLRGH)) | 47.2% | < 5% | 
CC[C@H](C)[C@@H]1NC(=O)[C@H](CO)NC(=O)[C@H](Cc2cnc[nH]2)NC(=O)[C@@H](CCCNC(=N)N)NC(=O)[C@H](CCCNC(=N)N)NC(=O)[C@H](CC(C)C)NC(=O)[C@H](CC(C)C)NC(=O)CNC1=O | 37.2% | < 5% | 
CC(C)C[C@H](NC(=O)CN)C(=O)N[C@@H](CC(C)C)C(=O)N[C@@H](CCCNC(=N)N)C(=O)N[C@H](CCCNC(=N)N)C(=O)N[C@@H](Cc1cnc[nH]1)C(=O)N[C@@H](CO)C(=O)O | 47.6% | < 5% | 
CC(C)C[C@@H]1NC(=O)[C@H](CCCCN)NC(=O)[C@H](CC(=O)O)NC(=O)[C@H](Cc2cnc[nH]2)NC(=O)[C@@H](CCCNC(=N)N)NC(=O)[C@H](CCCNC(=N)N)NC(=O)[C@H](CC(C)C)NC1=O | 36.3% | < 5% | 
CC[C@H](C)[C@H](NC(=O)[C@H](CO)NC(=O)[C@H](Cc1cnc[nH]1)NC(=O)[C@@H](CCCNC(=N)N)NC(=O)[C@H](CCCNC(=N)N)NC(=O)[C@H](CC(C)C)NC(=O)[C@H](CC(C)C)NC(=O)CN)C(=O)O | 49.6% | < 5% | inhibition [3]: Active; inhibition [4]: Active; inhibition [5]: Dose-dependent effect; inhibition [6]: Active
CC[C@H](C)[C@H](NC(=O)[C@H](CO)NC(=O)[C@H](Cc1cnc[nH]1)NC(=O)[C@@H](CCCN=C(N)N)NC(=O)[C@H](CCCN=C(N)N)NC(=O)[C@H](CC(C)C)NC(=O)[C@H](CC(C)C)NC(=O)CN)C(=O)O |  |  | Drug uptake (HEK293 [7]): Active; Drug uptake (HEK293 [8]): Active; IC50 [9]: 340 nM
CC(C)C[C@@H]1NC(=O)CNC(=O)[C@H](CO)NC(=O)[C@H](Cc2cnc[nH]2)NC(=O)[C@@H](CCCNC(=N)N)NC(=O)[C@H](CCCNC(=N)N)NC(=O)[C@H](CC(C)C)NC1=O | 47.8% | < 5% | 
